Laboratory results: patent publication US20200024278A1, “COMPOSITION COMPRISING ANTIBIOTIC COMPOUND AND AN HETEROCYCLIC COMPOUND AND THEIR USE IN PREVENTING OR TREATING BACTERIAL INFECTIONS” (MUTABILIS, priority 2016, published 2020)

Columns and labels:
Assay in all cases: MIC, broth microdilution (CLSI), substance alone or ATB combined with compound at 4 or 8 μg/mL
PAE 105250 = assay type: cell-based, P. aeruginosa; conditions: PAE 105250; for MIC ATB combined with compound / MIC ATB combined with Example compound: compound @8 μg/ml
Procedure, shortened: (§1)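 Antibiotic MICs were determined in presence of fixed compound at 4 or 8 μg/mL, and compound MICs alone, by visual growth inhibition. Inoculum 5·10^5 CFU/mL in ca-MHB, incubated 35 °C for 16-20 h per CLSI-M7-A7. Glucose-6-phosphate (25 μg/ml) added when fosfomycin was tested.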

PAE UFR90 = assay type: cell-based, P. aeruginosa; conditions: PAE UFR90; for MIC ATB combined with compound / MIC ATB combined with Example compound: compound @8 μg/ml
Procedure, shortened: as §1

PAE UFR48 = assay type: cell-based, P. aeruginosa; conditions: PAE UFR48; for MIC ATB combined with compound / MIC ATB combined with Example compound: compound @8 μg/ml
Procedure, shortened: as §1

ECL P99 = assay type: cell-based, E. cloacae; conditions: ECL P99
Procedure, shortened: as §1

SAU 29213 = assay type: cell-based, S. aureus; conditions: for MIC ATB combined with compound / MIC ATB combined with Example compound: compound @8 μg/ml, SAU 29213
Procedure, shortened: as §1

ABA UFR152 = assay type: cell-based, A. baumannii; conditions: Acinetobacter baumannii, substance alone, read-out: MIC
Procedure, shortened: as §1

ABA UFR156 = assay type: cell-based, A. baumannii; conditions: Acinetobacter baumannii, substance alone, read-out: MIC
Procedure, shortened: as §1

KPN BAA-1898 = assay type: cell-based, K. pneumoniae; conditions: KPN BAA-1898
Procedure, shortened: as §1

KPN 6299 = assay type: cell-based, K. pneumoniae; conditions: MIC of CIP, compound @8 μg/ml
Procedure, shortened: as §1

KPN UFR42 = assay type: cell-based, K. pneumoniae; conditions: KPN UFR42; for MIC ATB combined with Example compound: compound @8 μg/ml
Procedure, shortened: as §1

ECO 190317 = assay type: cell-based, E. coli; conditions: ECO 190317
Procedure, shortened: as §1

ECO UFR39 = assay type: cell-based, E. coli; conditions: ECO UFR39; for MIC ATB combined with Example compound: compound @8 μg/ml
Procedure, shortened: as §1

SPN 49619 = assay type: cell-based, S. pneumoniae; conditions: SPN 49619; for MIC ATB combined with compound / MIC ATB combined with Example compound: compound @8 μg/ml
Procedure, shortened: as §1

[1] = Pseudomonas aeruginosa, substance alone, read-out: MIC
[2] = Escherichia coli, substance alone, read-out: MIC

NC[C@H]1C=C(c2cnco2)[C@@H]2CN1C(=O)N2OS(=O)(=O)[O-].O=C(O)C(F)(F)F.[Na+] (relative stereo) [Example 1, sodium and 2,2,2-trifluoroacetate [trans-2-(azaniumylmethyl)-4-oxazol-5-yl-7-oxo-1,6-diazabicyclo[3.2.1]oct-3-en-6-yl] sulfate]
MIC ATB combined with compound (PAE 105250; ATB ATM): <0.031 µg/mL
MIC ATB combined with compound (PAE 105250; ATB FEP): <0.031 µg/mL
MIC ATB combined with compound (PAE 105250; ATB FOS): 4 µg/mL
MIC ATB combined with compound (PAE 105250; ATB MEM): <0.031 µg/mL
MIC ATB combined with compound (PAE 105250; ATB PIP): <0.031 µg/mL
MIC ATB combined with Example compound (PAE 105250; MIC of CIP): <0.031 µg/mL
MIC ATB combined with Example compound (PAE 105250; MIC of CPO): <0.031 µg/mL
MIC (PAE 105250; [1]): > 32 µg/mL
MIC ATB combined with compound (PAE UFR90; ATB ATM): <0.031 µg/mL
MIC ATB combined with compound (PAE UFR90; ATB FEP): <0.031 µg/mL
MIC ATB combined with compound (PAE UFR90; ATB FOS): <0.125 µg/mL
MIC ATB combined with compound (PAE UFR90; ATB MEM): <0.031 µg/mL
MIC ATB combined with compound (PAE UFR90; ATB PIP): <0.031 µg/mL
MIC ATB combined with Example compound (PAE UFR90; MIC of CIP): <0.031 µg/mL
MIC ATB combined with Example compound (PAE UFR90; MIC of CPO): <0.031 µg/mL
MIC (PAE UFR90; [1]): 0.5 µg/mL
MIC ATB combined with compound (PAE UFR48; ATB ATM): <0.031 µg/mL
MIC ATB combined with compound (PAE UFR48; ATB FEP): <0.031 µg/mL
MIC ATB combined with compound (PAE UFR48; ATB FOS): 2 µg/mL
MIC ATB combined with compound (PAE UFR48; ATB MEM): <0.031 µg/mL
MIC ATB combined with compound (PAE UFR48; ATB PIP): <0.031 µg/mL
MIC ATB combined with Example compound (PAE UFR48; MIC of CIP): <0.031 µg/mL
MIC ATB combined with Example compound (PAE UFR48; MIC of CPO): <0.031 µg/mL
MIC (PAE UFR48; [1]): 4 µg/mL
MIC (ECL P99; Enterobacter cloacae, substance alone, read-out: MIC): 0.031 µg/mL
MIC ATB combined with Example compound (ECL P99; MIC of CIP, compound @8 μg/ml): <0.031 µg/mL
MIC ATB combined with compound (SAU 29213; ATB ATM): >32 µg/mL
MIC ATB combined with compound (SAU 29213; ATB FEP): 4 µg/mL
MIC ATB combined with compound (SAU 29213; ATB FOS): 1 µg/mL
MIC ATB combined with compound (SAU 29213; ATB MEM): 0.125 µg/mL
MIC ATB combined with compound (SAU 29213; ATB PIP): 5 µg/mL
MIC ATB combined with Example compound (SAU 29213; MIC of CIP): 0.5 µg/mL
MIC ATB combined with Example compound (SAU 29213; MIC of CLI): 0.125 µg/mL
MIC ATB combined with Example compound (SAU 29213; MIC of CPO): 1 µg/mL
MIC ATB combined with Example compound (SAU 29213; MIC of DAP): 0.0078 µg/mL
MIC ATB combined with Example compound (SAU 29213; MIC of ERY): 0.25 µg/mL
MIC ATB combined with Example compound (SAU 29213; MIC of LZD): 2 µg/mL
MIC ATB combined with Example compound (SAU 29213; MIC of RIF): 0.0078 µg/mL
MIC ATB combined with Example compound (SAU 29213; MIC of SYN): 0.5 µg/mL
MIC ATB combined with Example compound (SAU 29213; MIC of VAN): 1 µg/mL
MIC (SAU 29213; Staphylococcus aureus, substance alone, SAU 29213 (MSSA 29213), read-out: MIC): > 32 µg/mL
MIC (ABA UFR152): > 32 µg/mL
MIC (ABA UFR156): > 32 µg/mL
MIC (KPN BAA-1898; Klebsiella pneumoniae, BAA1898, substance alone, read-out: MIC): > 32 µg/mL
MIC ATB combined with Example compound (KPN BAA-1898; MIC of CIP, compound @8 μg/ml): 16 µg/mL
MIC ATB combined with Example compound (KPN 6299): 32 µg/mL
MIC (KPN UFR42; Klebsiella pneumoniae, substance alone, read-out: MIC): > 32 µg/mL
MIC ATB combined with Example compound (KPN UFR42; MIC of CIP): >32 µg/mL
MIC ATB combined with Example compound (KPN UFR42; MIC of CPO): 16 µg/mL
MIC (ECO 190317; [2]): 0.031 µg/mL
MIC ATB combined with Example compound (ECO 190317; MIC of CIP, compound @8 μg/ml): <0.031 µg/mL
MIC (ECO UFR39; [2]): 0.031 µg/mL
MIC ATB combined with Example compound (ECO UFR39; MIC of CIP): <0.031 µg/mL
MIC ATB combined with Example compound (ECO UFR39; MIC of CPO): <0.031 µg/mL
MIC ATB combined with compound (SPN 49619; ATB ATM): >32 µg/mL
MIC ATB combined with compound (SPN 49619; ATB FEP): 0.063 µg/mL
MIC ATB combined with compound (SPN 49619; ATB FOS): 32 µg/mL
MIC ATB combined with compound (SPN 49619; ATB MEM): 0.063 µg/mL
MIC ATB combined with compound (SPN 49619; ATB PIP): 0.5 µg/mL
MIC ATB combined with Example compound (SPN 49619; MIC of CIP): 1 µg/mL
MIC ATB combined with Example compound (SPN 49619; MIC of CLI): 0.063 µg/mL
MIC ATB combined with Example compound (SPN 49619; MIC of CPO): <=0.031 μg/mL
MIC ATB combined with Example compound (SPN 49619; MIC of DAP): 0.125 µg/mL
MIC ATB combined with Example compound (SPN 49619; MIC of ERY): 0.063 µg/mL
MIC ATB combined with Example compound (SPN 49619; MIC of LZD): 1 µg/mL
MIC ATB combined with Example compound (SPN 49619; MIC of RIF): 0.063 µg/mL
MIC ATB combined with Example compound (SPN 49619; MIC of SYN): 0.5 µg/mL
MIC ATB combined with Example compound (SPN 49619; MIC of VAN): 0.25 µg/mL
MIC (SPN 49619; Streptococcus pneumoniae, substance alone, read-out: MIC): > 32 µg/mL
